Results from patent US20020076736A1, “Methods of affecting laminin 5 processing” (priority 2000, published 2002).
“Also recorded” adds a separate entry of the source.

How the values were obtained:
cultured cells = experiment: Toxicity to cultured cells; type: cell-based
MMP-1 = biological target: T1, MMP-1 (Homo sapiens, UniProt P03956); experiment: Inhibition of MMP-1 activity; type: biochemical
T1 sequence (P03956 100-469): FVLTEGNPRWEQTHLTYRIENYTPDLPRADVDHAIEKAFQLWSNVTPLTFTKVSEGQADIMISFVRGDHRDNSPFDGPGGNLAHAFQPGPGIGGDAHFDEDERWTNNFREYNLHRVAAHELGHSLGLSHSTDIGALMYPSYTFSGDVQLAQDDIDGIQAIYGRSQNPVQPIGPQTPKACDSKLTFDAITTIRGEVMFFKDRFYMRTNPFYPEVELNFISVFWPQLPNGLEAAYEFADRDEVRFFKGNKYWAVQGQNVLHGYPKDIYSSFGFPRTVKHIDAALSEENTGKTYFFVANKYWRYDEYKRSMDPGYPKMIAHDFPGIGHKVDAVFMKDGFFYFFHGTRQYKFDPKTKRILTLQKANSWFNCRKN

mTll-1 = mTll-1 (Homo sapiens, UniProt O43897); experiment: Cleavage of unprocessed laminin 5 matrix by mTll-1, western blot; type: biochemical; details: 10 μM
Method: (§1) The processing of laminin 5 by various BMP-1 related proteins was examined. […] The cells were then removed from the culture dish by 20 mM ammonium sulfate, the dish was washed, and the matrix was incubated in increasing amounts of each BMP-1 related protein. After proteolytic digestion, the matrix was extracted and examined by western blot analysis. […] BMP-1 and mTLL-2 cleaved the γ2 chain of laminin 5.

MMP-2 = biological target: T2, MMP-2 (Homo sapiens, UniProt P08253); experiment: Inhibition of MMP-2 activity; type: biochemical
T2 sequence (P08253 110-660): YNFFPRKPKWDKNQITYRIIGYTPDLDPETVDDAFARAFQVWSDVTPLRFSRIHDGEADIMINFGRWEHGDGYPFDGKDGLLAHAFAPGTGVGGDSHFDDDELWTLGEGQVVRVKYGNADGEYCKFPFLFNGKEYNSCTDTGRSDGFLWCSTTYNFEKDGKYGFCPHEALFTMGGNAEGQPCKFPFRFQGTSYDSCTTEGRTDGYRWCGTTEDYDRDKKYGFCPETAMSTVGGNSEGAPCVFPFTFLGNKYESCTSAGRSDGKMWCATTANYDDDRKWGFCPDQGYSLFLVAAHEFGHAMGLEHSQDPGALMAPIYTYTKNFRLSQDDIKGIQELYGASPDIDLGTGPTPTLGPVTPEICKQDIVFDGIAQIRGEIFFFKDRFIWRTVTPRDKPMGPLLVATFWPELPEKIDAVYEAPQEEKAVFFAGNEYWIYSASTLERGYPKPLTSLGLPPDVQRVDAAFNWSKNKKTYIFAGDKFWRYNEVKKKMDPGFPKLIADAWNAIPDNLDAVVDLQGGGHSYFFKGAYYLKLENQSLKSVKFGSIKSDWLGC

SCC-25 cells = experiment: Matrigel invasion chamber, SCC-25; type: cell-based, human; details: 5 μM; 24 hours
Method: (§2) The assay is a standard in vitro measure of tumor cell invasion. Tumor cells are plated atop a layer of fabricated basement membrane and allowed to migrate over the course of 24 hours towards conditioned 3T3 medium, which contains a chemo-attractant, located in a lower chamber. […] (FIG. 25.)

SCC-15 cells = experiment: Matrigel invasion chamber, SCC-15; type: cell-based; details: 5 μM; 24 hours
Method: as §2

[1] = system: laminin 5 processing in squamous cell carcinoma cell line SCC-25; experiment: Laminin 5 processing in SCC-25 cells, western blot; type: cell-based, human; details: 1, 5, 10 μM; 48 hours
Method: (§3) This is shown by western blot analysis. […] (FIG. 13: lane 1, control; lane 2, 1 μM; lane 3, 5 μM; lane 4, 10 μM.)

squamous carcinoma cells = experiment: Migration of squamous carcinoma cells (general statement); type: cell-based
SCC-15 = experiment: MTT toxicity assay, SCC-15; type: cell-based; details: 24 hour
mTll-2 = mTll-2 (Homo sapiens, UniProt Q9Y6L7); experiment: Cleavage of unprocessed laminin 5 matrix by mTll-2, western blot; type: biochemical; details: 10 μM
Method: as §1

[2] = system: squamous carcinoma cell line SCC-25; experiment: Scratch assay, SCC-25; type: cell-based, human
Method: (§4) To approximate in vivo epidermal cell migration, during which epidermal cells move as sheets, scratch assays were utilized. Normal human keratinocytes were plated to confluence in the presence of either of the inhibitors (10 μM) or DMSO, and the cells allowed to attach for 6 hours. A 2 mm scratch was produced in the culture, marked, and the migration of the cells studied for the following 24 to 48 hours. […] (FIG. 7B.) When scratched plates were subsequently washed after 24 hours of incubation with the inhibitors, and incubated for an additional 24 hours in the absence of inhibitors, normal migration equivalent to that of the control conditions was noted.
In addition, squamous carcinoma cell line SCC-25 (ATCC Number CRL-1628) was examined by the described scratch assay using the inhibitors. […] Washing out of the inhibitors for an additional 48 hour time period restored normal SCC migration.
(§5) A dose-dependent study of Compound 2 was performed on keratinocyte cultures. In these assays, a scratch was placed in a confluent layer of cells, and the migration of the cells into the scratched area was assessed after 48 hours. In the absence of inhibitor, normal immortalized keratinocytes (NIK) migrated into the scratch area.

[3] = system: laminin 5 processing in squamous cell carcinoma cell line SCC-15; experiment: Laminin 5 processing in SCC-15 cells, western blot; type: cell-based; details: 1, 5, 10 μM; 48 hours
Method: as §3

[4] = system: laminin 5 processing in normal immortalized keratinocytes (NIK); experiment: Laminin 5 processing in normal immortalized keratinocytes, western blot; type: cell-based; details: 1, 5, 8 μM; 48 hours
normal keratinocytes = experiment: Keratinocyte detachment by trypsin; type: cell-based; details: cultured 24 hours with compound; 0.05% trypsin
Text: The mode of attachment of keratinocytes to processed and unprocessed laminin 5 was examined by two methods. […] (FIG. 20.)

MT1-MMP = MT1-MMP (Homo sapiens, UniProt P50281); experiment: Inhibition of MT1-MMP activity; type: biochemical
SCC-25 = experiment: MTT toxicity assay, SCC-25; type: cell-based, human; details: 24 hour
SiHa = experiment: MTT toxicity assay, SiHa; type: cell-based; details: 24 hour
[5] = system: normal immortalized keratinocytes (NIK); experiment: Scratch assay, normal immortalized keratinocytes; type: cell-based
Method: as §5

[6] = system: squamous cell carcinoma cell line SCC-15; experiment: Scratch assay, SCC-15; type: cell-based; details: 1, 5, 10 μM; 48 hours
[7] = system: normal human keratinocytes; experiment: Scratch assay, normal human keratinocytes; type: cell-based; details: 10 μM; 24 hours
Method: as §4

keratinocytes = experiment: Keratinocyte migration, Boyden chambers; type: cell-based
Method: Compounds 1 and 2 were used to examine the functional effects of processing by BMP-1 related proteins on keratinocyte migration. […] Keratinocytes were analyzed for migration in Boyden chambers in the presence of increasing amounts of the inhibitors. […] (Koivunen et al. (1999) Nature Biotechnology 17:768-774.)

SiHa cells = experiment: Matrigel invasion chamber, SiHa; type: cell-based; details: 24 hours; cell line unable to produce laminin 5
Method: as §2

MMP-9 = MMP-9 (Homo sapiens, UniProt P14780); experiment: Inhibition of MMP-9 activity; type: biochemical
[8] = system: laminin 5 processing in normal human keratinocytes; experiment: Laminin 5 processing in keratinocyte cultures, western blot; type: cell-based
Method: Each of the inhibitors was added to freshly plated cultures of normal human keratinocytes. After 16 hours, laminin 5 was extracted from cultures and analyzed by western blot using a polyclonal antibody to laminin 5.

Chain of mTll-2 (Q9Y6L7 150-1015): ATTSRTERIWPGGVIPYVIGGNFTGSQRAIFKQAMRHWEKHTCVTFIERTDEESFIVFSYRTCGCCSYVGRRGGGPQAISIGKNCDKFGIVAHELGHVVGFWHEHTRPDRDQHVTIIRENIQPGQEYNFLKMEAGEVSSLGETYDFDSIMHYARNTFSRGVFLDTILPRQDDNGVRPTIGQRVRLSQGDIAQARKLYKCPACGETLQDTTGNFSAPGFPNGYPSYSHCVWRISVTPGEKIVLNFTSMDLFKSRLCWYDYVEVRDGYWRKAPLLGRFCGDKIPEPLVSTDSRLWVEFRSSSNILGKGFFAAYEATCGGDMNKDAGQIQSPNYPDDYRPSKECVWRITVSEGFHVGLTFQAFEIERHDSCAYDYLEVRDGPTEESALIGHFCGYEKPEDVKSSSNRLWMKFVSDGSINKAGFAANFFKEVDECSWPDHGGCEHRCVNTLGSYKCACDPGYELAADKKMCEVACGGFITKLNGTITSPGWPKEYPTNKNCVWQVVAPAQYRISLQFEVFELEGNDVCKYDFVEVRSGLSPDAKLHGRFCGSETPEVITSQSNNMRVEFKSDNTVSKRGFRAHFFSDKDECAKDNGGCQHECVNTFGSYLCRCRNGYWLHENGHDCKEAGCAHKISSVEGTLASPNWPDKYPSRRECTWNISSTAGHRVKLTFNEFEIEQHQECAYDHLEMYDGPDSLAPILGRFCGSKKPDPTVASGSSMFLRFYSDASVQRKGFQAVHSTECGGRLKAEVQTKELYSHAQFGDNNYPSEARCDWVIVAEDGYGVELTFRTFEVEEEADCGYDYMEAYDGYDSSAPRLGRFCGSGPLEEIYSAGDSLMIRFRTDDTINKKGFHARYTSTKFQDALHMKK
Chain of mTll-1 (O43897 148-1013): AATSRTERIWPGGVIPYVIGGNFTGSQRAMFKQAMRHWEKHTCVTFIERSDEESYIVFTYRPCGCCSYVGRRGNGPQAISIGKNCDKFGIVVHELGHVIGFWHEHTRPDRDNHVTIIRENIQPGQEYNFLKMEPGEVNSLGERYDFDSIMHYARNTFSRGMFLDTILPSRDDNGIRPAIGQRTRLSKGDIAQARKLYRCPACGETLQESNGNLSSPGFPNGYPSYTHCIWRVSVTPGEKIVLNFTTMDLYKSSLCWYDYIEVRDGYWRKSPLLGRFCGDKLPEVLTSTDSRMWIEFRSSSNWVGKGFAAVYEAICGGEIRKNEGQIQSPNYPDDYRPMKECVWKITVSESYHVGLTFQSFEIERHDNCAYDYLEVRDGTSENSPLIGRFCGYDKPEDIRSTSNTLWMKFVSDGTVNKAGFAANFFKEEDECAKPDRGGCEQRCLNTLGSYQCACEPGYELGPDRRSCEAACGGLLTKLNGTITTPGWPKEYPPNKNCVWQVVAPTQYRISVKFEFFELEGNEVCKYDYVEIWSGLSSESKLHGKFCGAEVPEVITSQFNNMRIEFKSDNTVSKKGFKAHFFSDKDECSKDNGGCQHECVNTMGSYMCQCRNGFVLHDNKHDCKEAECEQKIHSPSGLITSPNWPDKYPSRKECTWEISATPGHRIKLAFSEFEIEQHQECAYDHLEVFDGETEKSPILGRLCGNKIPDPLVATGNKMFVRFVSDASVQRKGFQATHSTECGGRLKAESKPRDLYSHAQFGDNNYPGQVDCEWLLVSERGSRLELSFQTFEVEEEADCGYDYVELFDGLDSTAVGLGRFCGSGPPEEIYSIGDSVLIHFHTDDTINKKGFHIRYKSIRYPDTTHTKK
Chain of MMP-9 (P14780 94-707, species assumed): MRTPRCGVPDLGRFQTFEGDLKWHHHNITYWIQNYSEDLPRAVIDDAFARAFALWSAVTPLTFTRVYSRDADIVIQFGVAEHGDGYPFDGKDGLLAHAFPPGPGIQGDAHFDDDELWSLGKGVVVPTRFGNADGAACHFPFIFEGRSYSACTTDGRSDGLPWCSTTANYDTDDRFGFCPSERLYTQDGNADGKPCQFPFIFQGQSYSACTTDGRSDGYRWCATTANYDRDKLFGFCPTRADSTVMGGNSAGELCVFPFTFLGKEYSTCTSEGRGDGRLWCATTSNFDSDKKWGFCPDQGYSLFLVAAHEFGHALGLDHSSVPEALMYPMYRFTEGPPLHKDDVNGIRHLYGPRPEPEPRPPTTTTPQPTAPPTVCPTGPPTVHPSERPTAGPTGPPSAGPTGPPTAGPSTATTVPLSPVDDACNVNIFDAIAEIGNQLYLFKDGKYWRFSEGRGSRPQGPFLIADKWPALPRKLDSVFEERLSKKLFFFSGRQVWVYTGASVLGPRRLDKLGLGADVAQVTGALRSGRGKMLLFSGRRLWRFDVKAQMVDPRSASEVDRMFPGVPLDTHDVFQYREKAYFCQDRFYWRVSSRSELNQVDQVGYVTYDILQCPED
Method for KLASV cells: To allow for attachment to the tissue culture dish, KLASV cells were plated in tissue culture wells previously coated with type I collagen.

`COc1ccc(CCN(CCC(=O)NO)S(=O)(=O)c2ccc(NC(=O)NCc3ccccc3)cc2)cc1` [Compound 2] was tested, and the “toxicity to cultured cells at 100 times inhibitory levels” value (cultured cells; 100 times the concentration which inhibited BMP-1 activity) was “nontoxic”, the “toxic effect on cells” value (cultured cells; cell culture) was “nontoxic; also recorded: non-toxic; also recorded: no toxic effect on cells” and the “inhibition of activity of MMP-1” value (MMP-1) was “no inhibition”. The “cleavage of laminin 5 α3 chain by mTLL-1” value (mTll-1) was “inhibited cleavage of laminin 5 α3 chain”, the “inhibition of activity of MMP-2” value (MMP-2) was “no inhibition” and the “invasion of SCC-25 cells” value (SCC-25 cells) was “able to inhibit the invasion”. The “invasion of SCC-15 cells” value (SCC-15 cells) was “able to inhibit the invasion”, the “processing of laminin 5 in SCC-25, dose dependence” value [1] was “dose-dependent effect” and the “inhibition of migration of squamous carcinoma cells” value (squamous carcinoma cells) was “potently inhibit”. For the same compound, the “MTT toxicity, SCC-15” value (SCC-15) was “little or no toxicity”, the “cleavage of laminin 5 α3 chain by mTLL-2” value (mTll-2) was “inhibited cleavage of laminin 5 α3 chain” and the “cleavage of laminin 5 γ2 chain by mTLL-2” value (mTll-2) was “inhibited cleavage of laminin 5 γ2 chain”. The “SCC-25 migration response compared with keratinocytes” value ([2]; 10 μM) was “identical response”, the “inhibition of SCC cell migration on type I collagen coated versus non-coated dishes” value ([2]; 10 μM, 48 hr) was “equally effective at inhibiting cell migration” and the “SCC-25 migration into the scratch” value ([2]; 10 μM, up to 48 hours) was “effective at preventing SCC-25 migration”. The “migration of SCC-25 into the scratch area, dose dependence” value ([2]; 1, 5, 10 μM, 48 hours) was “dose-dependent effect”, the “processing of laminin 5 in SCC-15, dose dependence” value [3] was “dose-dependent effect” and the “processing of laminin 5 in NIK, dose dependence” value [4] was “dose-dependent effect”. The “resistance of treated cells to trypsin detachment” value (normal keratinocytes) was “more resistant to trypsin treatment”, the “inhibition of activity of MT1-MMP” value (MT1-MMP) was “no inhibition” and the “MTT toxicity, SCC-25” value (SCC-25) was “little or no toxicity”. The “MTT toxicity, SiHa” value (SiHa) was “little or no toxicity”, the “inhibition of keratinocyte migration on type I collagen coated versus non-coated dishes” value ([5]; 10 μM, 48 hr) was “equally effective at inhibiting cell migration” and the “migration of NIK into the scratch area, dose dependence” value ([5]; 1, 5, 8 μM, 48 hours) was “dose-dependent inhibition of migration”. For the same compound, the “migration of SCC-15 into the scratch area, dose dependence” value [6] was “dose-dependent effect”, the “migration of keratinocytes into the scratch” value [7] was “almost a complete lack of migration” and the “inhibition of keratinocyte migration” value (keratinocytes) was “potently inhibit”. The “keratinocyte migration in transwells or over a scratch” value (keratinocytes; 10 μM) was “almost complete lack of migration”, the “inhibition of keratinocyte migration, dose dependence” value (keratinocytes; Boyden chamber and scratch assays) was “inhibition of KC migration in a dose-dependent manner” and the “dose required to achieve nearly complete inhibition of migration” value (keratinocytes; Boyden chambers) was 10 µM. For the same compound, the “invasion of SiHa cells” value (SiHa cells) was “not able to inhibit the invasion”, the “migration of KLASV cells” value (KLASV cells; type I collagen coated dishes, 10 μM, 48 hr) was “not inhibited” and the “migration of KLASV cells into the scratch” value (KLASV cells; type I collagen coated wells, 24 hours, compared to non-treated control) was “significant migration into the scratch”. The “inhibition of activity of MMP-9” value (MMP-9) was “no inhibition”, the “processing of laminin 5 deposited by cultured keratinocytes” value ([8]; 10 μM) was “prevented processing of laminin 5” and the “level of expression of laminin 5” value ([8]; 16 hours, western blot) was “did not significantly change”. The “processing of the α3 and γ2 chains of laminin 5” value ([8]; 16 hours, western blot) was “completely inhibited” and the “laminin 5 α3 chain and γ2 chain processing, dose dependence” value ([8]; dose-dependent manner) was “inhibited laminin 5 α3 chain and γ2 chain processing”.
